Experimental data from patent EP2769722A1 (Ruprecht-Karls-Universität Heidelberg, priority 2013, dated 2014).
Structures can show the parent of a compound that is named as a salt.

Target: T1, CA (Human immunodeficiency virus type 1 group M subtype B, UniProt P12493)
T1 construct: a fusion protein of CA with glutathione-S-transferase (CA-GST)
Assay: AlphaScreen: inhibition of CAI-biotin peptide binding to CA-GST
Parameters: species or system HIV-1
Settings: inhibition of CAI binding to CA (CA-GST fusion); compounds screened at 0.5-100 µM; read-out: α screen IC50
Description: The AlphaScreen experiments are performed using Perkin Elmer Enspire plate reader in white 96-well ProxiPlates and PBS supplemented with 0.05% Tween20, 2mM DTT, 2% DMSO. First, Streptavidin-coated Donor beads are used to capture the CAI-biotin peptide. In the other solution, a fusion protein of CA with glutathione-S-transferase (CA-GST) is mixed with GSH Acceptor beads. Both mixtures were incubated and then mixed together. To test the ability of prepared organic compounds to inhibit the CAI binding to CA, they are screened at concentrations between 0.5-100 µM and IC50 values are calculated from the influenced signals.
Upon illumination by laser at 680 nm, Donor beads containing the photosensitizer phthalocyanine convert ambient oxygen to an excited form of singlet oxygen ^1O2. Singlet oxygen can within its half-life of ∼ 4µs diffuse approximately 200 nm in solution. If an Acceptor bead is within that proximity, which is mostly upon CA:CAI interaction, energy is transferred from the singlet oxygen to thioxene derivates within the Acceptor and signal at 520 - 620 nm is emitted. […] Table 4: Synthesized and tested compounds

Compound	IC50 [µM]
Cc1ccc(NC(=O)c2cccc(C(F)(F)F)c2)cc1Nc1cc(-c2cccnc2Cl)ncn1 [KP-380, N-(3-(6-(2-chloropyridin-3-yl)pyrimidin-4-ylamino)-4-methylphenyl)-3-(trifluoromethyl)benzamide hydrochloride]	> 100
Cc1ccc(NC(=O)c2cccc(C(F)(F)F)c2)cc1Nc1ccnc(-c2cncc(Br)c2)n1 [KP-384, N-(3-(2-(5-bromopyridin-3-yl)pyrimidin-4-ylamino-4-methylphenyl)-3-(trifluoromethyl)benzamide hydrochloride]	> 100
Cc1ccc(NC(=O)c2cccc(C(F)(F)F)c2)cc1Nc1ccnc(-c2cccnc2)n1 [KP-385, N-(3-(2-(pyridin-3-yl)pyritnidin-4-ylamino)-4-methylphenyl)-3-(trifluoromethyl)benzamide hydrochloride]	> 100
CCOC(=O)c1ccc(Nc2ccnc(-c3cccnc3)n2)cc1Cl [hydrochloride]	31
